Among the data in patent publication US11427548B2 (Arvinas Operations, Inc., priority 2015, dated 2022) are Dmax and DC50 values, retold here.

Like-named read-outs stand apart in the source and are kept apart here. Some results are limits rather than exact numbers.

The target of the test is T1, Androgen Receptor (Homo sapiens, UniProt P10275).
T1 construct: endogenous in cells; host or cells: VCaP cells
T1 sequence (P10275 1-920): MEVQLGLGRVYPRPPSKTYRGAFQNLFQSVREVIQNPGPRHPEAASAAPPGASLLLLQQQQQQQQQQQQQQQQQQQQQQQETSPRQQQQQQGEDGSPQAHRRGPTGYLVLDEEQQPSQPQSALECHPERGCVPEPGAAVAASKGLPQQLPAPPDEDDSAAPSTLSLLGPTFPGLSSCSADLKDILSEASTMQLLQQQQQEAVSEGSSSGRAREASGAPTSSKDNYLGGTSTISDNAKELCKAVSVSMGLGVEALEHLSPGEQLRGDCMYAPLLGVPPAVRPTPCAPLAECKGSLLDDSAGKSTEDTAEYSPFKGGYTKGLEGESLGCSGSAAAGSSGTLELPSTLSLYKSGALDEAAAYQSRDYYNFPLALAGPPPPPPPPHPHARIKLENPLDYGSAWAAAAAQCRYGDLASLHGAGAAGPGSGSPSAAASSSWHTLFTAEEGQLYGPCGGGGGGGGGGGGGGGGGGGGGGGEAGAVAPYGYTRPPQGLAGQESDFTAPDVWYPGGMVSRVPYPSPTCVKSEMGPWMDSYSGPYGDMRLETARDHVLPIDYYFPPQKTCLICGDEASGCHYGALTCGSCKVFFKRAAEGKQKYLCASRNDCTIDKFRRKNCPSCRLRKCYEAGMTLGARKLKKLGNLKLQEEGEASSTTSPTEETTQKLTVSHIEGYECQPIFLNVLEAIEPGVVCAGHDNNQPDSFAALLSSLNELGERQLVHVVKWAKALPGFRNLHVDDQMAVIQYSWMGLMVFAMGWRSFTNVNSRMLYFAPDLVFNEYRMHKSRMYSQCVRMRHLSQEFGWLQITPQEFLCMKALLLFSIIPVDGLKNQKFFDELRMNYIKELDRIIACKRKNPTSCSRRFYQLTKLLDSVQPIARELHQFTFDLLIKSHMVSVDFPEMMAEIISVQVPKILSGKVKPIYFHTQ
Description: Androgen Receptor ELISA assay (PathScan AR ELISA) in VCaP cells: AR degradation, Dmax and DC50. Format: cell-based. The procedure, abridged:
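VCaP cells, 30,000/well, grown ≥3 days in phenol red-free RPMI with 5% charcoal-stripped FBS; compound added in 0.1% DMSO with 0.1 nM R1881, 7 half-log doses, 24 h. Lysate AR quantified by PathScan sandwich ELISA, HRP/TMB read at 450 nm, giving DC50 and Dmax.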
(In an ELISA, binding on a coated surface is turned into a signal by an enzyme label.)

The mark [1] stands for this setting: read-out: VCaP DC50; concentration that caused 50% Androgen Receptor degradation, VCaP cells (Table 32).
Setting [2] is: VCaP, highest percentage of Androgen Receptor degradation observed, VCaP cells (Table 32); read-out: VCaP Dmax (%).
Setting [3] is: concentration that caused 50% Androgen Receptor degradation, VCaP cells (Table 32); read-out: VCaP DC50.

A word on the Dmax: it is the greatest extent of degradation seen. As usually defined, the DC50 is the concentration at which degradation of the target reaches its halfway point. Take `Cc1ncoc1-c1ccc([C@H](C)NC(=O)[C@@H]2C[C@@H](O)CN2C(=O)[C@@H](NC(=O)COCCCCOc2ccc(-c3ccc(N4C(=S)N(c5ccc(C#N)c(C(F)(F)F)c5)C(=O)C4(C)C)c(F)c3)cc2)C(C)(C)C)cc1` [Example 138, (2S,4R)-1-[(2S)-2-(2-{4-[4-(4-{3-[4-cyano-3-(trifluoromethyl)phenyl]-5,5-dimethyl-4-oxo-2-sulfanylideneimidazolidin-1-yl}-3-fluorophenyl)phen-oxy]butoxy}acetamido)-3,3-dimethylbutanoyl]-4-hydroxy-N-[(1S)-1-[4-(4-methyl-1,3-oxazol-5-yl)phenyl]ethyl]pyrrolidine-2-carboxamide]: the Dmax (VCaP, read-out: VCaP Dmax (%)) was > 71%. Besides, the DC50 under setting [1] is < 0.05 µM.

In the case of `COc1cc(-c2ccc(N3C(=S)N(c4ccc(C#N)c(C(F)(F)F)c4)C(=O)C3(C)C)cc2)ccc1OCCCCOCC(=O)N[C@H](C(=O)N1C[C@H](O)C[C@H]1C(=O)NCc1ccc(-c2scnc2C)cc1)C(C)(C)C` [Example 139, (2S,4R)-1-[(2S)-2-(2-{4-[4-(4-{3-[4-cyano-3-(trifluoromethyl)phenyl]-5,5-dimethyl-4-oxo-2-sulfanylideneimidazolidin-1-yl}phenyl)-2-methoxyphenoxy]butoxy}acetamido)-3,3-dimethylbutanoyl]-4-hydroxy-N-{[4-(4-methyl-1,3-thiazol-5-yl)phenyl]methyl}pyrrolidine-2-carboxamide], where the note is “VCaP, read-out: VCaP Dmax (%)”, the Dmax is > 71%. For the same molecule, the DC50 under setting [1] was < 0.05 µM.

As to `COc1cc(OCCCCOCC(=O)N[C@H](C(=O)N2C[C@H](O)C[C@H]2C(=O)NCc2ccc(-c3scnc3C)cc2)C(C)(C)C)ccc1-c1ccc(N2C(=S)N(c3ccc(C#N)c(C(F)(F)F)c3)C(=O)C2(C)C)cc1` [Example 140, (2S,4R)-1-[(2S)-2-(2-{4-[4-(4-{3-[4-cyano-3-(trifluoromethyl)phenyl]-5,5-dimethyl-4-oxo-2-sulfanylideneimidazolidin-1-yl}phenyl)-3-methoxyphenoxy]butoxy}acetamido)-3,3-dimethylbutanoyl]-4-hydroxy-N-{[4-(4-methyl-1,3-thiazol-5-yl)phenyl]methyl}pyrrolidine-2-carboxamide], the Dmax (VCaP, read-out: VCaP Dmax (%)) is > 71%. Besides, the DC50 under setting [1] is < 0.05 µM.

For `Cc1ncsc1-c1ccc(CNC(=O)[C@@H]2C[C@@H](O)CN2C(=O)[C@@H](NC(=O)COCCC[C@@H](C)Oc2ccc(-c3ccc(N4C(=S)N(c5ccc(C#N)c(C(F)(F)F)c5)C(=O)C4(C)C)cc3)cc2)C(C)(C)C)cc1` [Example 141, (2S,4R)-1-[(2S)-2-(2-{[(4S)-4-[4-(4-{3-[4-cyano-3-(trifluoromethyl)phenyl]-5,5-dimethyl-4-oxo-2-sulfanylideneimidazolidin-1-yl}phenyl)phen-oxy]pentyl]oxy}acetamido)-3,3-dimethylbutanoyl]-4-hydroxy-N-{[4-(4-methyl-1,3-thiazol-5-yl)phenyl]methyl}pyrrolidine-2-carboxamide], where the note is “VCaP, read-out: VCaP Dmax (%)”, the Dmax was > 71%. For the same molecule, under setting [1], the DC50 is < 0.05 µM.

For the molecule `Cc1ncsc1-c1ccc(CNC(=O)[C@@H]2C[C@@H](O)CN2C(=O)[C@@H](NC(=O)COCCC[C@H](C)Oc2ccc(-c3ccc(N4C(=S)N(c5ccc(C#N)c(C(F)(F)F)c5)C(=O)C4(C)C)cc3)cc2)C(C)(C)C)cc1` [Example 142, (2S,4R)-1-[(2S)-2-(2-{[(4R)-4-[4-(4-{3-[4-cyano-3-(trifluoromethyl)phenyl]-5,5-dimethyl-4-oxo-2-sulfanylideneimidazolidin-1-yl}phenyl)phen-oxy]pentyl]oxy}acetamido)-3,3-dimethylbutanoyl]-4-hydroxy-N-{[4-(4-methyl-1,3-thiazol-5-yl)phenyl]methyl}pyrrolidine-2-carboxamide], the Dmax (VCaP, read-out: VCaP Dmax (%)) was > 71%. Further, the DC50 under setting [1] was < 0.05 µM.

With `Cc1ncsc1-c1ccc([C@H](C)NC(=O)[C@@H]2C[C@@H](O)CN2C(=O)[C@@H](NC(=O)COCCCCNc2ccc(-c3ccc(N4C(=S)N(c5ccc(C#N)c(C(F)(F)F)c5)C(=O)C4(C)C)cc3)cc2)C(C)(C)C)cc1` [Example 145, (2S,4R)-1-[(2S)-2-[2-(4-{[4-(4-{3-[4-cyano-3-(trifluoromethyl)phenyl]-5,5-dimethyl-4-oxo-2-sulfanylideneimidazolidin-1-yl}phenyl)phen-yl]amino}butoxy)acetamido]-3,3-dimethylbutanoyl]-4-hydroxy-N-[(1S)-1-[4-(4-methyl-1,3-thiazol-5-yl)phenyl]ethyl]pyrrolidine-2-carboxamide], the Dmax (VCaP, read-out: VCaP Dmax (%)) is > 71%. Moreover, under setting [1], the DC50 is < 0.05 µM.

As for `Cc1ncsc1-c1ccc(CNC(=O)[C@@H]2C[C@@H](O)CN2C(=O)[C@@H](NC(=O)COCCCCOc2ccc(-c3ccc(N4C(=S)N(c5ccc(C#N)c(C(F)(F)F)c5)C(=O)C4(C)C)cc3)c(F)c2)C(C)(C)C)cc1` [Example 149, (2S,4R)-1-[(2S)-2-(2-{4-[4-(4-{3-[4-cyano-3-(trifluoromethyl)phenyl]-5,5-dimethyl-4-oxo-2-sulfanylideneimidazolidin-1-yl}phenyl)-3-fluorophenoxy]butoxy}acetamido)-3,3-dimethylbutanoyl]-4-hydroxy-N-{[4-(4-methyl-1,3-thiazol-5-yl)phenyl]methyl}pyrrolidine-2-carboxamide], where the note is “VCaP, read-out: VCaP Dmax (%)”, the Dmax is > 71%. The DC50 under setting [1] is < 0.05 µM.

In the case of `Cc1ncsc1-c1ccc(CNC(=O)[C@@H]2C[C@@H](O)CN2C(=O)[C@@H](NC(=O)COCCCCCOc2ccc(C(=O)N[C@H]3C(C)(C)[C@H](Oc4ccc(C#N)c(Cl)c4)C3(C)C)cc2)C(C)(C)C)cc1` [Example 151, (2S,4R)-1-[(2S)-3,3-dimethyl-2-(2-{[5-(4-{[trans-3-(3-chloro-4-cyanophenoxy)-2,2,4,4-tetramethylcyclobutyl]carbamoyl}phen-oxy)pentyl]oxy}acetamido)butanoyl]-4-hydroxy-N-{[4-(4-methyl-1,3-thiazol-5-yl)phenyl]methyl}pyrrolidine-2-carboxamide], the Dmax under setting [2] is > 71%. Besides, under setting [3], the DC50 was < 0.05 µM.

With `Cc1ncoc1-c1ccc(CNC(=O)[C@@H]2C[C@@H](O)CN2C(=O)[C@@H](NC(=O)COCCCCCOc2ccc(C(=O)NC3C(C)(C)C(Oc4ccc(C#N)c(Cl)c4)C3(C)C)cc2)C(C)(C)C)cc1` (stereo partly drawn) [Example 152, (2S,4R)-1-[(2S)-3,3-dimethyl-2-(2-{[5-(4-{[trans-3-(3-chloro-4-cyanophenoxy)-2,2,4,4-tetramethylcyclobutyl]carbamoyl}phen-oxy)pentyl]oxy}acetamido)butanoyl]-4-hydroxy-N-{[4-(4-methyl-1,3-oxazol-5-yl)phenyl]methyl}pyrrolidine-2-carboxamide], under setting [2], the Dmax is > 71%. In addition, under setting [3], the DC50 was < 0.05 µM.

As for `CC(C)(C)[C@H](NC(=O)COCCCCCOc1ccc(C(=O)N[C@H]2C(C)(C)[C@H](Oc3ccc(C#N)c(Cl)c3)C2(C)C)cc1)C(=O)N1C[C@H](O)C[C@H]1C(=O)NCc1ccc(-c2cnco2)cc1` [Example 153, (2S,4R)-1-[(2S)-3,3-dimethyl-2-(2-{[5-(4-{[trans-3-(3-chloro-4-cyanophenoxy)-2,2,4,4-tetramethylcyclobutyl]carbamoyl}phen-oxy)pentyl]oxy}acetamido)butanoyl]-4-hydroxy-N-{[4-(1,3-oxazol-5-yl)phenyl]methyl}pyrrolidine-2-carboxamide], the Dmax under setting [2] was > 71%. The DC50 under setting [3] was < 0.05 µM.

`Cc1ncoc1-c1ccc(CNC(=O)[C@@H]2C[C@@H](O)CN2C(=O)[C@@H](NC(=O)COCCCCCOc2ccc(C(=O)N[C@H]3C(C)(C)[C@H](Oc4ccc(C#N)c(C(F)(F)F)c4)C3(C)C)cc2)C(C)(C)C)cc1` [Example 154, (2S,4R)-1-[(2S)-3,3-dimethyl-2-(2-{[5-(4-{[trans--3-[4-cyano-3-(trifluoromethyl)phenoxy]-2,2,4,4-tetramethylcyclobutyl]carbamoyl}phen-oxy)pentyl]oxy}acetamido)butanoyl]-4-hydroxy-N-{[4-(4-methyl-1,3-oxazol-5-yl)phenyl]methyl}pyrrolidine-2-carboxamide]: the Dmax under setting [2] is > 71%. Also, under setting [3], the DC50 was < 0.05 µM.
